# Entries after “also recorded” stand apart in the source; their conditions may differ. Read-outs that look alike come from different tables or passages of the source.
# Tests used:
# [1] = system: CaSki cervical carcinoma cell line (HPV16 E6 and E7 positive HLA-A2 positive); experiment: Lysis of CaSki tumor cells by peptide-specific CTLs; format: cell-based, human; parameters: key to Lysis: + denotes a greater level than the native epitope; = denotes the same level as the native epitope; − denotes a lower level than the native epitope; conditions: for % specific lysis (SD), CaSki (HLA-A2+ HPV E6+ and E7+): CTLs at IVS5, effector-to-target ratio 25:1; for Lysis: level compared with the native epitope
# Description: (§1) HPV-specific T cells were generated using infection of dendritic cells (DCs) with Ad-HPV followed by stimulation of the T cells with each agonist and native peptide. In particular, DCs were infected with Ad5 HPV at 20,000 MOI. Infected DCs were used to generate specific CTLs using autologous PBMC. Autologous DCs were used as APCs for three in vitro stimulations (IVS). Autologous peptide-pulsed B cells were used to re-stimulate antigen-specific CTLs for two additional IVS. CTLs were used at IVS5.
# (§2) Results are expressed in % specific lysis (SD). Effector-to-target ratio used was 25:1. CTLs were established from a normal HLA-A2 donor. CaSki is a cervical carcinoma cell line (HPV16 E6 and E7 positive HLA-A2 positive). ASPC-1 is a pancreatic cancer cell line (HPV16 E6 and E7 negative HLA-A2 negative).
# [2] = system: ASPC-1 pancreatic cancer cell line (HPV16 E6 and E7 negative HLA-A2 negative); experiment: Lysis of ASPC-1 control cells by peptide-specific CTLs; format: cell-based, human; conditions: CTLs at IVS5, effector-to-target ratio 25:1; for % specific lysis (SD), ASPC-1 (HLA-A2neg HPV E6neg and E7neg): Table 4; for % specific lysis (SD), ASPC-1: Table 5
# Description: as §1, §2
# as §2, with “HN-4 and HN-12 cells are head and neck squamous” for “CaSki is a cervical”, “lines (HLA-A2” for “line (HPV16 E6 and E7 positive HLA-A2”
# [3] = system: CTL (T cells); experiment: IFN-γ production by CTL stimulated by autologous B cells pulsed with corresponding peptide; format: cell-based, human; parameters: key to IFN-γ: + denotes a greater level than the native epitope; = denotes the same level as the native epitope; − denotes a lower level than the native epitope; conditions: for interferon production (in words): T cells stimulated by peptide-pulsed autologous B cells
# Description: Autologous B cells were pulsed with each native and agonist E6 peptides to stimulate production of interferon by T cells.
# Autologous B cells were pulsed with each native and agonist E7 peptides to stimulate production of interferon by T cells.
# [4] = biological target: T1, HLA-A2 molecules (Homo sapiens, UniProt P04439, D140Y/D185E/D98H/E176V/E277Q/G131W/G231S/I119V/I121R/I166T/I218V/L300P/L318F/N151K/N90K/P208A/P217A/Q86G/Q94H/R138H/R169H/T345S); experiment: T2A2 binding of HPV-16 E6/E7 peptides to HLA-A2; parameters: T2A2 Binding: unit not given here
# T1 construct: endogenous in cells; host or cells: T2A2 cells (T2 cell line expressing HLA-A2; only the column head names it)
# [5] = system: HN-12 head and neck squamous carcinoma cell line (HLA-A2 positive); experiment: Lysis of HN-12 cells by peptide-specific CTLs; format: cell-based, human; conditions: for % specific lysis (SD), HN-12: CTLs at IVS5, effector-to-target ratio 25:1
# Description: as §1
# as §2, with “HN-4 and HN-12 cells are head and neck squamous” for “CaSki is a cervical”, “lines (HLA-A2” for “line (HPV16 E6 and E7 positive HLA-A2”
# [6] = system: HN-4 head and neck squamous carcinoma cell line (HLA-A2 positive); experiment: Lysis of HN-4 cells by peptide-specific CTLs; format: cell-based, human; conditions: for % specific lysis (SD), HN-4: CTLs at IVS5, effector-to-target ratio 25:1
# Description: as §1
# as §2, with “HN-4 and HN-12 cells are head and neck squamous” for “CaSki is a cervical”, “lines (HLA-A2” for “line (HPV16 E6 and E7 positive HLA-A2”
# [7] = system: HPV-specific T cell lines; experiment: IFN-γ production by HPV-specific T cell lines stimulated with Ad5-infected human dendritic cells; format: cell-based
# Experimental: Human DC (6 day culture in IL-4 and GM-CSF) were infected with Ad5 [E1,E2b]-HPV vector and Ad5 [E1,E2b]-Null at 1×10^5/well (24-well plate) in 0.5 ml of AIM-V. Ad5 vectors were used at 20,000 MOI for 1 hour and then 1.5 ml of AIM-V were added to each well. Infected DCs were incubated for 48 hours and then washed and used for stimulation of human antigen-specific T cells. Results are expressed in pg of IFN-γ per 5×10^5 T cells/ml. DC only=<0.73 pg/ml.
# [8] = CTL line stimulated by autologous B cells pulsed with corresponding HPV-16 E7 peptide
# [9] = E7 CTL line, autologous B cells with NO peptide
# [10] = level compared with the native epitope
# [11] = DCs infected with Ad5 [E1,E2b]-HPV (20,000 MOI)
# [12] = DCs infected with Ad5 [E1,E2b]-Null (20,000 MOI)
# [13] = CTL line stimulated by autologous B cells pulsed with corresponding HPV-16 E6 peptide
# [14] = E6 CTL line, autologous B cells with NO peptide
# [15] = compared to native counterparts
Sequence,"% specific lysis (SD), CaSki (HLA-A2+ HPV E6+ and E7+) [1]","% specific lysis (SD), ASPC-1 (HLA-A2neg HPV E6neg and E7neg) [2]","IFN-γ [3, 8] [pg/mL]","IFN-γ [3, 9] [pg/mL]",T2A2 Binding ([4]; binding to HLA-A2),Lysis [1],"IFN-γ [3, 10]","% specific lysis (SD), HN-12 [5]","% specific lysis (SD), HN-4 [6]","% specific lysis (SD), ASPC-1 [2]","IFN-γ [7, 11]","IFN-γ [7, 12]",IFN-γ ([7]; DCs only (uninfected)),IFN-γ ([7]; No DCs),"IFN-γ [3, 13] [pg/mL]","IFN-γ [3, 14] [pg/mL]",HLA-A2 binding (in words) [4],interferon production (in words) [3],also measured
"TLHEYMLDL [E7-2, reference compound]",59.2 (5.3) %,0.1 (1.0) %,475,95.6,,,,,,,,,,,,,,,
YMLDLQPEV [E7-A1],27.8 (3.6) %,0.9 (0.6) %,230,<15.6,"1,171",−,=,,,,,,,,,,,,
"QQYNKPLCDL [E6-3, reference compound]",38.1 (3.3) %,0.6 (0.2) %,,,"1,020",,,10.2 (3.8) %,7.0 (0.4) %,-1.1 (0.7) %,135 pg of IFN-γ per 5×10^5 T cells/ml,58.5 pg of IFN-γ per 5×10^5 T cells/ml,<0.73 pg of IFN-γ per 5×10^5 T cells/ml,<0.73 pg of IFN-γ per 5×10^5 T cells/ml,338,121,,,
"KLPQLCTEL [E6-1, reference compound]",34.1 (3.6) %,2.4 (0.6) %,,,,,,16.5 (1.7) %,21.2 (4.4) %,0.3 (0.9) %,114 pg of IFN-γ per 5×10^5 T cells/ml,<0.73 pg of IFN-γ per 5×10^5 T cells/ml,2.17 pg of IFN-γ per 5×10^5 T cells/ml,<0.73 pg of IFN-γ per 5×10^5 T cells/ml,264,<15.6,,,T2A2 Binding [4]: 853
TLHEYMLDV [E7-A2],41.9 (4.1) %,0.6 (1.3) %,95.3,<15.6,"1,529",−,−,,,,,,,,,,strongest; also recorded: good binding,low and produced more interferon than the agonist counterpart,
KLPQLCTEV [E6-A1],70.8 (10.7) %,-0.2 (6.6) %,,,"1,335",,,49.4 (3.1) %,46.2 (1.1) %,0.2 (0.9) %,683 pg of IFN-γ per 5×10^5 T cells/ml,1.0 pg of IFN-γ per 5×10^5 T cells/ml,<0.73 pg of IFN-γ per 5×10^5 T cells/ml,0.89 pg of IFN-γ per 5×10^5 T cells/ml,699,<15.6,strongest,best interferon production,"lysis of HN-12 (in words) [5, 15]: more lysis; lysis of HN-4 (in words) [6, 15]: more lysis; lysis of CaSki cervical carcinoma cells (in words) ([1]; compared to T cells generated with the native epitope counterpart): Enhanced lysis; activation of T cells directed against the epitope (in words) ([7]; human DCs infected with Ad-5[E1,E2b^neg]HPV): able to activate"

# From patent US11311613B2, “Development of agonist epitopes of the human papillomavirus” (priority 2016, dated 2022)
